The values that follow come from US8143288B2, “Inhibitors of HCV replication” (priority 2005, dated 2012).

The EC50 is the concentration needed to bring the measured effect to its halfway point.

Each structure is given as a SMILES string.

In the experiment the test system is HCV 1b-377-neo replicon cells. As to the kind of experiment: HCV replicon FRET assay. Particulars: Hepatitis C virus; HCV replicon; read-out: Activity (EC50). It is filed as cell-based. (In general: In antiviral work, replicon cells carry a viral genome segment that copies itself.)

As to `CCO[C@H]1C[C@@H](C(=O)Nc2ccc(/C=C/c3ccc(NC(=O)[C@@H]4C[C@H](OCC)CN4C(=O)OCc4ccccc4)cc3)cc2)N(C(=O)OCc2ccccc2)C1` [Example 18], the concentration giving a half-maximal response (EC50) is 1 to 10 µM.

In the case of `O=C(Nc1ccc(/C=C/c2ccc(NC(=O)[C@@H]3CCCN3C(=O)c3ccccc3F)cc2)cc1)[C@@H]1CCCN1C(=O)c1ccccc1F` [Example 107], the EC50 lay within 0.1 to 1 µM.

For the molecule `Cn1cccc1CC(=O)N1CCC[C@H]1C(=O)Nc1ccc(/C=C/c2ccc(NC(=O)[C@@H]3CCCN3C(=O)Cc3cccn3C)cc2)cc1` [Example 105], the 50% effective concentration (EC50) is 0.0001 to 0.09 µM.

For the molecule `O=C(Nc1ccc(/C=C/c2ccc(NC(=O)[C@@H]3CCCN3C(=O)c3ccccc3Cc3ccccc3)cc2)cc1)[C@@H]1CCCN1C(=O)c1ccccc1Cc1ccccc1` [Example 171], the EC50 lay in the range of 0.1 to 1 µM.

As to `CCCOc1ccccc1C(=O)N1CCC[C@H]1C(=O)Nc1ccc(/C=C/c2ccc(NC(=O)[C@@H]3CCCN3C(=O)c3ccccc3OCCC)cc2)cc1` [Example 134], the concentration giving a half-maximal response (EC50) lay within 1 to 10 µM. Then `O=C(Nc1ccc(/C=C/c2ccc(NC(=O)[C@@H]3CCCN3C(=O)c3ccsc3)cc2)cc1)[C@@H]1CCCN1C(=O)c1ccsc1` [Example 68], with 0.0001 to 0.09 µM; and `CC(C)(C)O[C@@H]1C[C@@H](C(=O)Nc2ccc(/C=C/c3ccc(NC(=O)C4CC4)cc3)cc2)N(C(=O)OCc2ccccc2)C1` [Example 259], with 0.1 to 1 µM; and `O=C(Nc1ccc(/C=C/c2ccc(NC(=O)[C@@H]3CCCN3C(=O)[C@H]3CCCO3)cc2)cc1)[C@H]1CCCO1` [Example 263], with 1 to 10 µM.

For the molecule `CC(C)N(C(=O)N1CCCC1C(=O)Nc1ccc(/C=C/c2ccc(NC(=O)C3CCCN3C(=O)N(C(C)C)C(C)C)cc2)cc1)C(C)C` (stereo not drawn) [Example 284], the half-maximal effective concentration (EC50) was 0.0001 to 0.09 µM.

With `Nc1ccc(/C=C/c2ccc(NC(=O)[C@@H]3CCCN3C(=O)Cc3ccccc3)cc2)cc1` [Example 250A], the EC50 was 1 to 10 µM.

Consider `CCOc1ccccc1C(=O)N1CCC[C@H]1C(=O)Nc1ccc(/C=C/c2ccc(NC(=O)[C@@H]3CCCN3C(=O)c3ccccc3OCC)cc2)cc1` [Example 158], for which the half-maximal effective concentration (EC50) fell in the range of 1 to 10 µM. For the molecule `O=C(Nc1ccc(/C=C/c2ccc(NC(=O)[C@@H]3COCN3C(=O)OCc3ccccc3)cc2)cc1)[C@@H]1COCN1C(=O)OCc1ccccc1` [Example 11], the EC50 lay within 1 to 10 µM. On to `CC(C)(C)OC(=O)n1cc(C(=O)N2CCC[C@H]2C(=O)Nc2ccc(/C=C/c3ccc(NC(=O)[C@@H]4CCCN4C(=O)c4cn(C(=O)OC(C)(C)C)c5ccccc45)cc3)cc2)c2ccccc21` [Example 208], for which the EC50 was in the range of 1 to 10 µM. As to `O=C(Nc1ccc(/C=C/c2ccc(NC(=O)[C@@H]3CCCN3C(=O)Cc3ccccc3F)cc2)cc1)[C@@H]1CCCN1C(=O)Cc1ccccc1F` [Example 106], the EC50 lay within 0.0001 to 0.09 µM. The result for `O=C(Cc1ccccc1)C1C[C@H](O)C[C@H]1C(=O)Nc1ccc(/C=C/c2ccc(NC(=O)[C@@H]3C[C@@H](O)CN3C(=O)Cc3ccccc3)cc2)cc1` (stereo partly drawn) [Example 291] reads 0.0001 to 0.09 µM; that for `Cc1onc(-c2ccccc2)c1C(=O)N1CCC[C@H]1C(=O)Nc1ccc(/C=C/c2ccc(NC(=O)[C@@H]3CCCN3C(=O)c3c(-c4ccccc4)noc3C)cc2)cc1` [Example 204], 0.0001 to 0.09 µM; that for `O=C(Nc1ccc(/C=C/c2ccc(NC(=O)[C@@H]3CCCN3C(=O)c3cccnc3)cc2)cc1)[C@@H]1CCCN1C(=O)c1cccnc1` [Example 59], 0.1 to 1 µM. As for `O=C(NC1CCCC1)O[C@@H]1C[C@@H](C(=O)Nc2ccc(/C=C/c3ccc(NC(=O)[C@@H]4C[C@@H](O)CN4C(=O)OCc4ccccc4)cc3)cc2)N(C(=O)OCc2ccccc2)C1` [Example 248], the half-maximal effective concentration (EC50) is 1 to 10 µM. In the case of `O=C(Nc1ccc(/C=C/c2ccc(NC(=O)[C@@H]3CCCN3C(=O)c3ccco3)cc2)cc1)[C@@H]1CCCN1C(=O)c1ccco1` [Example 67], the 50% effective concentration (EC50) lay within 0.1 to 1 µM. `Cn1cccc1C(=O)N1CCC[C@H]1C(=O)Nc1ccc(/C=C/c2ccc(NC(=O)[C@@H]3CCCN3C(=O)c3cccn3C)cc2)cc1` [Example 121]: the EC50 is 0.0001 to 0.09 µM. Consider `CC(C)(C)OC(=O)N1CC(C(=O)N2CCC[C@H]2C(=O)Nc2ccc(/C=C/c3ccc(NC(=O)[C@@H]4CCCN4C(=O)C4CN(C(=O)OC(C)(C)C)C4)cc3)cc2)C1` [Example 112], for which the EC50 fell in the range of 0.1 to 1 µM. On to `COCC(=O)N1CCC[C@H]1C(=O)Nc1ccc(/C=C/c2ccc(NC(=O)[C@@H]3CCCN3C(=O)Cc3cccs3)cc2)cc1` [Example 100], for which the concentration for a half-maximal effect (EC50) is 0.0001 to 0.09 µM. On to `CCc1ccncc1C(=O)N1CCC[C@H]1C(=O)Nc1ccc(/C=C/c2ccc(NC(=O)[C@@H]3CCCN3C(=O)c3cnccc3CC)cc2)cc1` [Example 197], for which the EC50 fell in the range of 0.1 to 1 µM. For the molecule `Cn1ccnc1C(=O)N1CCC[C@H]1C(=O)Nc1ccc(/C=C/c2ccc(NC(=O)[C@@H]3CCCN3C(=O)c3nccn3C)cc2)cc1` [Example 64], the EC50 fell in the range of 0.0001 to 0.09 µM. As for `CC(C)(C)CC(=O)N1CCC[C@H]1C(=O)Nc1ccc(/C=C/c2ccc(NC(=O)[C@@H]3CCCN3C(=O)CC(C)(C)C)cc2)cc1` [Example 48], the EC50 fell in the range of 0.1 to 1 µM. On to `O=C(Nc1ccc(/C=C/c2ccc(NC(=O)[C@@H]3CCCN3C(=O)c3ccccc3NCc3ccccc3)cc2)cc1)[C@@H]1CCCN1C(=O)CC1CC1` [Example 152], for which the EC50 was 0.1 to 1 µM. Regarding `Cc1cccnc1C(=O)N1CCC[C@H]1C(=O)Nc1ccc(/C=C/c2ccc(NC(=O)[C@@H]3CCCN3C(=O)c3ncccc3C)cc2)cc1` [Example 177], the EC50 is 1 to 10 µM. Then `CN(C)c1ccccc1C(=O)N1CCC[C@H]1C(=O)Nc1ccc(/C=C/c2ccc(NC(=O)[C@@H]3CCCN3C(=O)c3ccccc3N(C)C)cc2)cc1` [Example 144], with 1 to 10 µM. Take `O=C(Nc1ccc(/C=C/c2ccc(NC(=O)[C@@H]3CCCN3C(=O)c3ccccc3C3=CCCC3)cc2)cc1)[C@@H]1CCCN1C(=O)c1ccccc1C1=CCCC1` [Example 237]: the EC50 lay within 1 to 10 µM. Then `O=C(c1ccccc1)c1cccnc1C(=O)N1CCC[C@H]1C(=O)Nc1ccc(/C=C/c2ccc(NC(=O)[C@@H]3CCCN3C(=O)c3ncccc3C(=O)c3ccccc3)cc2)cc1` [Example 174], with 0.1 to 1 µM. The result for `CCCOc1ccccc1C(=O)N1C[C@@H](N(C)C)C[C@H]1C(=O)Nc1ccc(/C=C/c2ccc(NC(=O)[C@@H]3C[C@H](N(C)C)CN3C(=O)c3ccccc3OCCC)cc2)cc1` [Example 227] reads 1 to 10 µM. Then `CCC/C=C/c1cccnc1C(=O)N1CCC[C@H]1C(=O)Nc1ccc(/C=C/c2ccc(NC(=O)[C@@H]3CCCN3C(=O)c3ncccc3/C=C/CCC)cc2)cc1` [Example 235], with 1 to 10 µM; and `Cc1cccc(C(=O)N2CCC[C@H]2C(=O)Nc2ccc(/C=C/c3ccc(NC(=O)[C@@H]4CCCN4C(=O)c4cccc(C)n4)cc3)cc2)n1` [Example 114], with 0.1 to 1 µM. For `CCc1ccnc(C(=O)N2CCC[C@H]2C(=O)Nc2ccc(/C=C/c3ccc(NC(=O)[C@@H]4CCCN4C(=O)c4cc(CC)ccn4)cc3)cc2)c1` [Example 188], the EC50 lay in the range of 0.1 to 1 µM. As to `CC(=O)N1CCC[C@H]1C(=O)Nc1ccc(/C=C/c2ccc(NC(=O)[C@@H]3CCCN3C(=O)Cc3ccccn3)cc2)cc1` [Example 49], the EC50 lay within 0.0001 to 0.09 µM. Consider `O=C(Nc1ccc(/C=C/c2ccc(NC(=O)[C@@H]3CCCN3C(=O)COc3cccc(Cl)c3)cc2)cc1)[C@@H]1CCCN1C(=O)COc1cccc(Cl)c1` [Example 38], for which the concentration for a half-maximal effect (EC50) lay in the range of 0.1 to 1 µM.
